Measurements published in patent US20040097408A1, “Compounds regulating cell proliferation and differentiation” (priority 2001, published 2004).
Where “and” joins values, the source holds several entries; their conditions need not be identical. Equal entries are not always repeated.

Columns and labels:
MDA-MB-453 = experiment: cell count proliferation assay; assay type: cell-based; design: key: +: A positive scoring in these Tables represent cells in which a 2-5 and a 10-40 fold reduction in the total number of cells relative to the control untreated cells was observed after 3 and 7 days of culture with F16, respectively; conditions: MDA-MB-453, human breast; F16 3 μM, cells counted after 3 and 7 days
From the text: (§1) The following panel of mouse tumor cell lines derived from Neu, Ras and Myc transgenic mice and panel of human cancer cell lines were used: a) Neu-initiated mouse tumor cell lines NF980, NF324-2A, NF324-1B, SMF, NAF, Neu4145, n-Neu, Ras-initiated mouse tumor cell lines SH1,1, AC236, AC711, AC816, ACp53^−#1, ACp53^−4782, AC222, AC99, AC260, ACp53^−#19, ACp53^−#16, AC/Balb6.6, AC/Balb14, AC/Balb12 and Myc-initiated mouse tumor cell lines 16MB9a, 13MA1a; and b) human breast tumor cell lines MDA-MB231, MDA-MB435, MDA-MB436, MDA-MB453, MDA-MB-468, SKBR-3, MCF-7, T47D, ZR75; human prostate cancer cell lines LNCaP, PC-3, DU145 and the human ovarian cancer cell line SKOV-3.
(§2) For each cell line, 10^5 cells were seeded in 4×6 well plates. Next day, F16 was added at 3 μM to the medium of 2 of the plates, while the other two were left untreated (control). Cells were counted 3 days and 7 days after initiation of treatment.
(§3) A positive scoring in these Tables represent cells in which a 2-5 and a 10-40 fold reduction in the total number of cells relative to the control untreated cells was observed after 3 and 7 days of culture with F16, respectively.

SKBR-3 = experiment: cell count proliferation assay; assay type: cell-based; design: key: +: A positive scoring in these Tables represent cells in which a 2-5 and a 10-40 fold reduction in the total number of cells relative to the control untreated cells was observed after 3 and 7 days of culture with F16, respectively; conditions: SKBR-3, human breast; F16 3 μM, cells counted after 3 and 7 days
From the text: as §1, §2, §3

T47D = experiment: cell count proliferation assay; assay type: cell-based; design: key: +: A positive scoring in these Tables represent cells in which a 2-5 and a 10-40 fold reduction in the total number of cells relative to the control untreated cells was observed after 3 and 7 days of culture with F16, respectively; conditions: human breast, F16 3 μM, cells counted after 3 and 7 days
From the text: as §1, §2, §3

MCF-7 = experiment: cell count proliferation assay; assay type: cell-based; design: key: +: A positive scoring in these Tables represent cells in which a 2-5 and a 10-40 fold reduction in the total number of cells relative to the control untreated cells was observed after 3 and 7 days of culture with F16, respectively; conditions: MCF-7, human breast; F16 3 μM, cells counted after 3 and 7 days
From the text: as §1, §2, §3

MDA-MB-436 = experiment: cell count proliferation assay; assay type: cell-based; design: key: +: A positive scoring in these Tables represent cells in which a 2-5 and a 10-40 fold reduction in the total number of cells relative to the control untreated cells was observed after 3 and 7 days of culture with F16, respectively; conditions: MDA-MB-436, human breast; F16 3 μM, cells counted after 3 and 7 days
From the text: as §1, §2, §3

MDA-MB-468 = experiment: cell count proliferation assay; assay type: cell-based; design: key: +: A positive scoring in these Tables represent cells in which a 2-5 and a 10-40 fold reduction in the total number of cells relative to the control untreated cells was observed after 3 and 7 days of culture with F16, respectively; conditions: MDA-MB-468, human breast; F16 3 μM, cells counted after 3 and 7 days
From the text: as §1, §2, §3

ZR75 = experiment: cell count proliferation assay; assay type: cell-based; design: key: +: A positive scoring in these Tables represent cells in which a 2-5 and a 10-40 fold reduction in the total number of cells relative to the control untreated cells was observed after 3 and 7 days of culture with F16, respectively; conditions: ZR75, human breast; F16 3 μM, cells counted after 3 and 7 days
From the text: as §1, §2, §3

control cells = experiment: electron-microscopy analysis of mitochondria; assay type: cell-based, mouse; conditions: 3 μM F16
Description: Electron-microscopy analysis was performed on untreated or F16-treated A6 cells, control cells and tumor cell lines SH1.1 and SMF to search for potential mitochondria lesions due to F16 accumulation. Cells grown in 35 mm dishes were left untreated or treated with 3 μM F16 for the indicated times, and fixed for 1 hr at room temperature in 0.1 M Cacodylate buffer containing 1.25% formaldehyde, 2.5% glutaraldehyde and 0.3% picric acid. Samples were then treated with 1% osmiuntetroxide/1.5% potassiumferrocyanide, followed by 1% uranyl acetate, dehydrated and epon-araldite embedded. Ultrathin sections were examined using a JEOL 1200EX microscope.

[1] = tested on: kidney, heart and liver samples; experiment: pathology examination of kidney, liver and heart; assay type: in vivo, mouse; conditions: four F16 treated and four placebo mice
From the text: All the tumors from the twenty mice as well as kidney, liver and heart samples from four placebo and four F16 treated mice were sent for pathology examination. […] Necrosis probably results from the lack of sufficient blood supply to these fast growing tumors.

EpH-A6 cells = experiment: tumor growth of EpH-A6 cells injected subcutaneously in nude mice; assay type: in vivo, mouse; design: Tumor weight, right flank / Tumor weight, left flank: unit not given here; conditions: for Tumor weight, left flank / Tumor weight, right flank: individual nude mice, F16 20 mg/kg intraperitoneally twice a day, 20 mg/kg
Description: Twenty nude mice of 8-10 weeks of age were injected subcutaneously with 10^6 EpH-A6 cells in the left and right flanks. Three days after the cell injection, a 20 mg/kg dose of F16 (40% DMSO/60% PBS) was injected intraperitoneally twice a day to a group of 10 mice, and an equivalent dose of vehicle to the remaining 10 mice (placebo mice). After 10 days of treatment, tumors were removed from all mice and weighted. Tumor tissue was used for FACS analysis, pathology, and some were stored at −70° C. until further processing.

[2] = tested on: β-catenin-initiated mouse breast tumor cell lines
EpH4-A6 cells = experiment: ATP levels (ATP Bioluminescence Assay); assay type: cell-based, mouse; conditions: 3 μM F16, 24 hr, FIG. 10
Description: One of the major roles of mitochondria is to supply energy to the cell. To assess alterations in mitochondrial function, ATP levels were determined in F16-treated cells by the luciferase-catalyzed ATP-dependent bioluminescent oxidation of luciferin using the ATP Bioluminescence Assay Kit (Roche). EpH4-EV and EpH4-A6 cells were grown in the absence or in the presence of 3 μM F16 for 15 hr and 24 hr. As a control A6 were treated with 5 μM FCCP (Sigma). Cells were then harvested, counted and equivalent numbers used for each determination, according to manufacturer's procedure. Each determination was done in triplicate, and the entire experiment was performed twice.

## C[n+]1ccc(/C=C/c2c[nH]c3ccccc23)cc1.[I-] [F16]
MDA-MB-453
  F16 response: +
SKBR-3
  F16 response: +
T47D
  F16 response: +
MCF-7
  F16 response: +
MDA-MB-436
  F16 response: +
MDA-MB-468
  F16 response: +
ZR75
  F16 response: +
Control cells
  mitochondrial ultrastructure: no abnormalities in mitochondria morphology
[1]
  pathology of kidney, heart and liver samples versus placebo: no major differences
EpH-A6 cells; Experiment #1, 10 days
  Tumor weight, left flank: 0.1131 and 0.0293 and 0.1365 and 0.021 and 0.1463 and 0.1127 and 0.1186 and 0.097 and 0.1163 and 0.1174
  Tumor weight, right flank: 0.214 and 0.0666 and 0.1984 and 0.1597 and 0.1645 and 0.1127 and 0.2314 and 0.2412 and 0.2408 and 0.2174
EpH-A6 cells; Experiment #2, 10 days
  Tumor weight, left flank: 0.054 and 0.4294 and 0.3368 and 0.041 and 0.2375 and 0.2087 and 0.1809 and 0.0454 and 0.1417 and 0
  Tumor weight, right flank: 0.022 and 0.632 and 0.2078 and 0.1798 and 0.1063 and 0.2621 and 0.1315 and 0.1971 and 0.3451 and 0
EpH-A6 cells; F16 20 mg/kg twice a day, 10 days
  difference in tumor size relative to the control mice: 2-3 fold
EpH-A6 cells; at least some F16 treated tumors compared to untreated tumors
  cells undergoing mitosis in tumors (pathology): decrease in number of cells undergoing mitosis
[2]
  selectivity for β-catenin-initiated mouse breast tumor cell lines: to some extent selectivity
EpH4-A6 cells
  ATP pool: significant depletion in the ATP pool
